Reference: the RepoRT retention time repository (doi:10.1021/ac300829f)

Test: RP, Thermo Scientific Hypersil GOLD, 150 × 2.1 mm, 1.9 µm, 0.5 mL/min, estimated dead time 0.66 min; A: water + 0.1% formic acid, pH 3; B: acetonitrile + 0.1% formic acid, pH 3; gradient (min/%B) 0/0 2/0 13/100 15.5/100 19/0
Conditions: stereoisomer not certain

**Q.** For OCc1cccc(O)c1 [3-hydroxybenzyl alcohol], which LC retention time is on record?
**A.** Its LC retention time is 5.1 min.

**Q.** With CCCCCC=CCC=CCCCCCCCC(=O)OCC(O)COP(=O)([O-])OCC[N+](C)(C)C (stereo not given) [1-linoleoylglycerophosphocholine GPCho(18:2)] as the compound, how does the LC retention time read?
**A.** Its LC retention time is 11.2 min.

**Q.** With O=c1[nH]c(=O)c2ncn(C3OC(CO)C(O)C3O)c2[nH]1 (stereo not given) [xanthosine] as the compound, how does the LC retention time read?
**A.** Its LC retention time is 4.3 min.

**Q.** With Cc1cc2c(cc1C)N(CC(O)C(O)C(O)COP(=O)(O)O)c1[nH]c(=O)[nH]c(=O)c1N2 (stereo not given) [FMNH] as the compound, how does the LC retention time read?
**A.** The LC retention time was 5.7 min.

**Q.** With NC(Cc1cnc[nH]1)C(=O)O (stereo not given) [histidine] as the compound, how does the LC retention time read?
**A.** Its LC retention time is 0.8 min.

**Q.** For CSCC(O)C(O)C(O)C=O (stereo not given) [5-methylthioribose], which LC retention time is on record?
**A.** The LC retention time was 1.1 min.

**Q.** Which LC retention time does the source give for CC(=O)Nc1ccn(C2OC(CO)C(O)C2O)c(=O)n1 (stereo not given) [N4-acetylcytidine] here?
**A.** The LC retention time was 4.6 min.

**Q.** For Nc1ncnc2c1ncn2C1OC(CO)C(O)C1O (stereo not given) [adenosine], which LC retention time is on record?
**A.** Its LC retention time is 1.1 min.

**Q.** For O=C1CCNC(=O)N1 [5,6-dihydrouracil], which LC retention time is on record?
**A.** Its LC retention time is 1.1 min.

**Q.** For CC(C)CC(N)C(=O)O (stereo not given) [leucine], which LC retention time is on record?
**A.** The LC retention time was 1.1 min.

**Q.** For Cc1ncc(C=O)c(CO)c1O [pyridoxal  isomer], which LC retention time is on record?
**A.** The LC retention time was 1.1 min.

**Q.** For CC(=O)Nc1ccc(OC2OC(C(=O)O)C(O)C(O)C2O)cc1 (stereo not given) [acetaminophene glucuronide], which LC retention time is on record?
**A.** Its LC retention time is 4.2 min.

**Q.** With NCCc1cnc[nH]1 [histamine] as the compound, how does the LC retention time read?
**A.** The LC retention time was 0.8 min.

**Q.** For [NH3+]CC(=O)N1CCCC1C(=O)[O-] (stereo not given) [Gly-Pro], which LC retention time is on record?
**A.** Its LC retention time is 1.1 min.

**Q.** With Cn1c(=O)c2[nH]c(=O)[nH]c2n(C)c1=O [1,3-dimethyluric acid] as the compound, how does the LC retention time read?
**A.** Its LC retention time is 4.7 min.

**Q.** Which LC retention time does the source give for CN1CC(=O)NC1=N [creatinine] here?
**A.** The LC retention time was 0.9 min.

**Q.** With [NH3+]CCCCCC(=O)[O-] [6-aminocaproic acid] as the compound, how does the LC retention time read?
**A.** The LC retention time was 1 min.

**Q.** With O=C(OC1OC(C(=O)O)C(O)C(O)C1O)c1c[nH]c2ccccc12 (stereo not given) [3-indole carboxylic acid glucuronide] as the compound, how does the LC retention time read?
**A.** The LC retention time was 6.3 min.

**Q.** For CCC(=O)OC(CC(=O)[O-])C[N+](C)(C)C (stereo not given) [propionylcarnitine], which LC retention time is on record?
**A.** Its LC retention time is 3.6 min.

**Q.** For CCCCCCCC(C(=O)O)C(=O)O [heptylmalonic acid], which LC retention time is on record?
**A.** The LC retention time was 6.1 min.

**Q.** With O=C(C=Cc1ccc(O)c(O)c1)OC1CC(O)(C(=O)O)CC(O)C1O (stereo not given) [chlorogenic acid] as the compound, how does the LC retention time read?
**A.** Its LC retention time is 5.5 min.

**Q.** Which LC retention time does the source give for N[C@@H](Cc1c[nH]c2ccccc12)C(=O)O [L-tryptophan] here?
**A.** The LC retention time was 0.8 min.

**Q.** Which LC retention time does the source give for CC(=O)NC(Cc1ccccc1)C(=O)O (stereo not given) [N-acetylphenylalanine] here?
**A.** Its LC retention time is 6.6 min.

**Q.** For C[n+]1cccc(C(=O)[O-])c1 [trigonelline], which LC retention time is on record?
**A.** The LC retention time was 0.9 min.

**Q.** With CCCCCC(=O)OC(CC(=O)[O-])C[N+](C)(C)C (stereo not given) [hexanoylcarnitine] as the compound, how does the LC retention time read?
**A.** The LC retention time was 6.6 min.

**Q.** For O=C(O)C(O)C(O)C(O)C(O)CO (stereo not given) [gluconic acid], which LC retention time is on record?
**A.** The LC retention time was 0.9 min.

**Q.** With Nc1ccnc(=O)[nH]1 [cytosine] as the compound, how does the LC retention time read?
**A.** Its LC retention time is 1.1 min.

**Q.** Which LC retention time does the source give for O=C(O)CNC(=O)c1ccccc1O [o-hydroxyhippuric acid] here?
**A.** The LC retention time was 6.5 min.

**Q.** Which LC retention time does the source give for NC(N)=NCC(=O)O [guanidoacetic acid] here?
**A.** Its LC retention time is 0.9 min.

**Q.** With CC12CCC3C(CCC4CC(OC5OC(C(=O)O)C(O)C(O)C5O)CCC43C)C1CCC2=O (stereo not given) [androsterone glucuronide] as the compound, how does the LC retention time read?
**A.** The LC retention time was 8.6 min.
